The text below walks through data of PubChem BioAssay AID328 (DTP/NCI, 2004).

Structures are written as SMILES. Several values for one entry are separate records, joined by “and”; a condition that tells them apart may be missing. Equal values may be shown once. Toxic doses and inconclusive results are not listed.

In the assay the test system is BDF1 mice, P388 leukemia ip, median survival T/C. The experiment in a line: NCI In Vivo Anticancer Drug Screen. Data for tumor model P388 Leukemia (intraperitoneal) in B6D2F1 (BDF1) mice. To be noted: endpoint: median survival time, higher = longer survival. A digest of the protocol: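 In tumour-bearing mice, survival after compound treatment is set against the vehicle group and given as a quotient.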

The mark [1] stands for this setting: dose: 100.0 mg/kg/injection, schedule: Q01DX009 (ip), vehicle: Klucel (hydroxypropylcellulose) (HPC).
Where [2] appears, read: dose: 200.0 mg/kg/injection, schedule: Q01DX009 (ip), vehicle: Klucel (hydroxypropylcellulose) (HPC).
Where [3] appears, read: dose: 6.25 mg/kg/injection, schedule: Q01DX009 (ip), vehicle: saline.
Where [4] appears, read: dose: 12.5 mg/kg/injection, schedule: Q01DX009 (ip), vehicle: saline.
The mark [5] stands for this setting: dose: 100.0 mg/kg/injection, schedule: Q01DX001 (ip), vehicle: saline.
Setting [6] is: dose: 200.0 mg/kg/injection, schedule: Q01DX001 (ip), vehicle: saline.
[7] abbreviates: dose: 400.0 mg/kg/injection, schedule: Q01DX001 (ip), vehicle: saline.
[8] abbreviates: dose: 100.0 mg/kg/injection, schedule: Q04DX003 (ip), vehicle: Klucel (hydroxypropylcellulose) (HPC).
The mark [9] stands for this setting: dose: 200.0 mg/kg/injection, schedule: Q04DX003 (ip), vehicle: Klucel (hydroxypropylcellulose) (HPC).
[10] abbreviates: dose: 400.0 mg/kg/injection, schedule: Q01DX009 (ip), vehicle: Klucel (hydroxypropylcellulose) (HPC).
The mark [11] stands for this setting: dose: 400.0 mg/kg/injection, schedule: Q04DX003 (ip), vehicle: Klucel (hydroxypropylcellulose) (HPC).
Where [12] appears, read: dose: 50.0 mg/kg/injection, schedule: Q01DX009 (ip), vehicle: saline with Tween-80.
The mark [13] stands for this setting: dose: 100.0 mg/kg/injection, schedule: Q01DX009 (ip), vehicle: saline with Tween-80.
The mark [14] stands for this setting: dose: 200.0 mg/kg/injection, schedule: Q01DX009 (ip), vehicle: saline with Tween-80.

Turning to `C[C@]12CC[C@H]3[C@@H](CC[C@]4(O)C[C@@H](O)CC[C@]34C=O)[C@@]1(O)CC[C@@H]2C1=CC(=O)OC1`, the T/C was 105 % of control (dose: 12.5 mg/kg/injection, schedule: Q01DX009 (ip), vehicle: Klucel (hydroxypropylcellulose) (HPC)); 95 % of control (dose: 25.0 mg/kg/injection, schedule: Q01DX009 (ip), vehicle: Klucel (hydroxypropylcellulose) (HPC)); 100 % of control (dose: 25.0 mg/kg/injection, schedule: Q01DX010 (ip), vehicle: carboxymethylcellulose (CMC)); 109 % of control and 115 % of control (dose: 50.0 mg/kg/injection, schedule: Q01DX009 (ip), vehicle: Klucel (hydroxypropylcellulose) (HPC)); 100 % of control under setting [1]; 105 % of control (dose: 100.0 mg/kg/injection, schedule: Q01DX010 (ip), vehicle: carboxymethylcellulose (CMC)). The T/C runs as follows: under setting [2], 100 % of control; (dose: 200.0 mg/kg/injection, schedule: Q01DX010 (ip), vehicle: carboxymethylcellulose (CMC)) 105 % of control.

Turning to `CC[N+](C)(C)Cc1ccccc1`, the T/C is 106 % of control under setting [3] and 106 % of control under setting [4].

Consider `O=CN(O)CC(=O)O.[Zn]`, for which the T/C (dose: 4.12 mg/kg/injection, schedule: Q01DX009 (ip), vehicle: saline) was 118 % of control and 122 % of control; the T/C under setting [3] is 118 % of control and 122 % of control; the T/C (dose: 8.7 mg/kg/injection, schedule: Q04DX003 (ip), vehicle: saline) was 104 % of control; the T/C (dose: 9.37 mg/kg/injection, schedule: Q01DX009 (ip), vehicle: saline) was 118 % of control; the T/C (dose: 13.0 mg/kg/injection, schedule: Q04DX003 (ip), vehicle: saline) is 113 % of control; the T/C (dose: 19.5 mg/kg/injection, schedule: Q04DX003 (ip), vehicle: saline) was 113 % of control. Also, the T/C (dose: 30.0 mg/kg/injection, schedule: Q04DX003 (ip), vehicle: saline) was 118 % of control.

`OCc1ccc(Cl)c(Cl)c1`: the T/C by setting is: (dose: 100.0 mg/kg/injection, schedule: Q04DX003 (ip), vehicle: other) 104 % of control; (dose: 200.0 mg/kg/injection, schedule: Q04DX003 (ip), vehicle: other) 104 % of control; (dose: 400.0 mg/kg/injection, schedule: Q04DX003 (ip), vehicle: other) 100 % of control.

Take `O=N[O-].[Co].[N-]=C=S.[NH2-].[NH2-].[NH2-].[NH2-]`: the T/C under setting [3] was 95 % of control; the T/C under setting [4] is 93 % of control; the T/C (dose: 25.0 mg/kg/injection, schedule: Q01DX009 (ip), vehicle: saline) was 112 % of control; the T/C (dose: 50.0 mg/kg/injection, schedule: Q04DX003 (ip), vehicle: saline with Tween-80) is 120 % of control.

Take `CC(C)(C)/C([O-])=N/[N+](C)(C)Cc1ccccc1`: the T/C reads like this: under setting [5], 109 % of control; under setting [6], 104 % of control; under setting [7], 104 % of control.

For the molecule `CCOC(=O)c1cc(C(=O)OCC)c(C#N)c(=O)[nH]1`, the T/C under setting [1] was 96 % of control; the T/C under setting [8] is 91 % of control; the T/C under setting [9] was 91 % of control; the T/C under setting [10] is 92 % of control; the T/C under setting [11] was 100 % of control.

Take `c1ccc(CNc2ncncc2-c2ccccc2)cc1`: the T/C runs as follows: under setting [12], 98 % of control; under setting [13], 105 % of control; under setting [14], 99 % of control.

For `N#Cc1cc([N+](=O)[O-])ccc1Cl`, the T/C is, setting by setting: (dose: 25.0 mg/kg/injection, schedule: Q01DX009 (ip), vehicle: saline with Tween-80) 90 % of control; under setting [12], 105 % of control; under setting [13], 105 % of control.

For `O=C(Nc1cc(Cl)c(NC(=O)c2ccccc2)c(Cl)c1)c1ccccc1`, the T/C is, setting by setting: (dose: 12.5 mg/kg/injection, schedule: Q01DX001 (ip), vehicle: saline with Tween-80) 100 % of control; (dose: 25.0 mg/kg/injection, schedule: Q01DX001 (ip), vehicle: saline with Tween-80) 90 % of control and 95 % of control; (dose: 50.0 mg/kg/injection, schedule: Q01DX001 (ip), vehicle: saline with Tween-80) 90 % of control; (dose: 100.0 mg/kg/injection, schedule: Q01DX001 (ip), vehicle: saline with Tween-80) 95 % of control.

In the case of `NOCc1cccc(C(F)(F)F)c1`, the T/C (dose: 75.0 mg/kg/injection, schedule: Q04DX003 (ip), vehicle: saline) is 91 % of control; the T/C (dose: 150.0 mg/kg/injection, schedule: Q04DX003 (ip), vehicle: saline) was 91 % of control; the T/C (dose: 300.0 mg/kg/injection, schedule: Q04DX003 (ip), vehicle: saline) is 91 % of control.

`Brc1c(-c2ccccc2)cc(-c2ccccc2)cc1-c1ccccc1`: the T/C under setting [8] is 108 % of control, the T/C under setting [9] is 95 % of control and the T/C under setting [11] is 95 % of control.

As for `CC1(C)SC(C)(C)N(C=O)C1C(=O)O` (centres undefined), the T/C was 90 % of control under setting [1]; 91 % of control under setting [8]; 109 % of control under setting [2]; 95 % of control under setting [9]; 90 % of control under setting [10]; 91 % of control under setting [11].

Consider `COc1cc(NS(C)(=O)=O)ccc1Nc1c2ccc([N+](=O)[O-])cc2nc2c(C)cccc12`, for which the T/C runs as follows: (dose: 0.1 mg/kg/injection, schedule: Q04DX003 (ip), vehicle: saline with Tween-80) 112 % of control; (dose: 0.2 mg/kg/injection, schedule: Q04DX003 (ip), vehicle: saline with Tween-80) 120 % of control; (dose: 0.86 mg/kg/injection, schedule: Q04DX003 (ip), vehicle: saline with Tween-80) 200 % of control; (dose: 1.3 mg/kg/injection, schedule: Q04DX003 (ip), vehicle: saline with Tween-80) 165 % of control; (dose: 2.0 mg/kg/injection, schedule: Q04DX003 (ip), vehicle: saline with Tween-80) 184 % of control; (dose: 3.0 mg/kg/injection, schedule: Q04DX003 (ip), vehicle: saline with Tween-80) 230 % of control and 204 % of control. The T/C runs as follows: (dose: 5.0 mg/kg/injection, schedule: Q04DX003 (ip), vehicle: saline with Tween-80) 241 % of control; (dose: 8.0 mg/kg/injection, schedule: Q04DX003 (ip), vehicle: saline with Tween-80) 230 % of control and 241 % of control; (dose: 12.0 mg/kg/injection, schedule: Q04DX003 (ip), vehicle: saline with Tween-80) 230 % of control; (dose: 18.0 mg/kg/injection, schedule: Q04DX003 (ip), vehicle: saline with Tween-80) 123 % of control.

With `O=C(O)Cc1c[nH]c2cccc(Cl)c12`, the T/C runs as follows: under setting [12], 93 % of control; under setting [13], 98 % of control; under setting [14], 100 % of control.

Take `CC(=NCc1ccccc1)C(C)(O)c1ccccc1` (centres undefined): the T/C is 100 % of control (dose: 100.0 mg/kg/injection, schedule: Q01DX001 (ip), vehicle: Klucel (hydroxypropylcellulose) (HPC)); 109 % of control under setting [5]; 110 % of control under setting [1]; 104 % of control (dose: 200.0 mg/kg/injection, schedule: Q01DX001 (ip), vehicle: Klucel (hydroxypropylcellulose) (HPC)); 100 % of control under setting [6]; 100 % of control under setting [2]. Also, the T/C was 100 % of control (dose: 400.0 mg/kg/injection, schedule: Q01DX001 (ip), vehicle: Klucel (hydroxypropylcellulose) (HPC)); 118 % of control under setting [7]; 105 % of control under setting [10].

On to `O=c1[nH]c2ccccc2nc1CBr`, for which the T/C (dose: 6.25 mg/kg/injection, schedule: Q01DX009 (ip), vehicle: saline with Tween-80) was 118 % of control and 122 % of control; the T/C (dose: 7.5 mg/kg/injection, schedule: Q04DX003 (ip), vehicle: saline with Tween-80) was 118 % of control; the T/C (dose: 12.5 mg/kg/injection, schedule: Q01DX009 (ip), vehicle: saline with Tween-80) was 118 % of control; the T/C (dose: 12.5 mg/kg/injection, schedule: Q04DX003 (ip), vehicle: saline with Tween-80) was 109 % of control; the T/C (dose: 15.0 mg/kg/injection, schedule: Q04DX003 (ip), vehicle: saline with Tween-80) was 104 % of control; the T/C (dose: 25.0 mg/kg/injection, schedule: Q04DX003 (ip), vehicle: saline with Tween-80) is 113 % of control. Besides, the T/C by setting is: (dose: 30.0 mg/kg/injection, schedule: Q04DX003 (ip), vehicle: saline with Tween-80) 118 % of control; (dose: 60.0 mg/kg/injection, schedule: Q04DX003 (ip), vehicle: saline with Tween-80) 100 % of control.
